Bounds are passed on as bounds.

Beta-3 adrenergic receptor (Rattus norvegicus), sequence (P26255 whole entry): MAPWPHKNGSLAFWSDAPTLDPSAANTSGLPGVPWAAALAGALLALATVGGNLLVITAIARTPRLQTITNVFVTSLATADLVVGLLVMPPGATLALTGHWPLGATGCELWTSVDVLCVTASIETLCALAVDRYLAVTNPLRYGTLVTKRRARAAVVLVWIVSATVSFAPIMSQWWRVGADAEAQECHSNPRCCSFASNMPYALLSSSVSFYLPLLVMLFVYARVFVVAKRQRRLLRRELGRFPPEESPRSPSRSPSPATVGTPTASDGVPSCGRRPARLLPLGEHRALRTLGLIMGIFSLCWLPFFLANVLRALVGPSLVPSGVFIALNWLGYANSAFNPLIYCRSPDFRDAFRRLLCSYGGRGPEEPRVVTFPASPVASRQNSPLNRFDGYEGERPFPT
Beta-2 adrenergic receptor, sequence (P07550 whole entry): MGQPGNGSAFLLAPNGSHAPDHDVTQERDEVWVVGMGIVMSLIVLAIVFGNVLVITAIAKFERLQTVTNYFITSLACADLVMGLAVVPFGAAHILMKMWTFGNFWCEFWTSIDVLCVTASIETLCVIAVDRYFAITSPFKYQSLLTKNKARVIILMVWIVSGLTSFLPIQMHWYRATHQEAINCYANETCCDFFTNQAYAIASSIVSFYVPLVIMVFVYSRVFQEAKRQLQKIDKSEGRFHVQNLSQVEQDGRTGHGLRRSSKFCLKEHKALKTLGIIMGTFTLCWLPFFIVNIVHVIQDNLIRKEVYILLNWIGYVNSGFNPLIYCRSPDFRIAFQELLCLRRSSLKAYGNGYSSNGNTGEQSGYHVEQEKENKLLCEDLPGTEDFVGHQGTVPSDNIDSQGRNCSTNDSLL

The first data set has as its target T1, Beta-3 adrenergic receptor (Homo sapiens, UniProt P13945). The data set can be described thus: Agonist activity at human beta-3 adrenergic receptor expressed in CHO cells assessed as cAMP levels relative to isoproterenol. Type of data set: functional, cell-based. As to conditions: filed as agonist. For orientation: Changes in cAMP serve as a functional read-out for many G protein-coupled receptors.
Target sequence in this assay (P13945 whole entry, looked up): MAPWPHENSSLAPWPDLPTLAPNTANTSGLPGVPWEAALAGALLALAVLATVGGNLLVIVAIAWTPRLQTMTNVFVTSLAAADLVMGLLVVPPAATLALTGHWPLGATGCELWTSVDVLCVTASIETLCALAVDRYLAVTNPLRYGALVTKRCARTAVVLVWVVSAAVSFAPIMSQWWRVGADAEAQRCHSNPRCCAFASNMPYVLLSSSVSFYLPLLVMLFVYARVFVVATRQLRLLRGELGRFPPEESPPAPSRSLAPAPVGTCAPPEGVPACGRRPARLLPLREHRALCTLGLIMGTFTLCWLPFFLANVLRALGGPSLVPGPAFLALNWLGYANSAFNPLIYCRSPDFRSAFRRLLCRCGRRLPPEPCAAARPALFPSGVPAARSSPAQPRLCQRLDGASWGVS
By Emax is commonly meant the maximal effect, on the per cent scale that the assay sets. Consider `Cn1c(=O)[nH]c2cccc(OC[C@@H](O)CNC(C)(C)Cc3ccc(Oc4ccc(C(N)=O)cn4)cc3)c21`, for which the Emax was 79.7%.
Same read-out and setting: for `CCCn1c(=O)[nH]c2cccc(OC[C@@H](O)CNC(C)(C)Cc3ccc(Oc4ccc(C(N)=O)cn4)cc3)c21` the value was 73.9%; for `CC(C)(Cc1ccc(Oc2ccc(C(N)=O)cn2)cc1)NC[C@H](O)COc1cccc2[nH]c(=O)n(CCC3CC3)c12`, 67.9%.
With `CC(C)(Cc1ccc(Oc2ccc(C(N)=O)cn2)cc1)NC[C@H](O)COc1cccc2[nH]c(=O)n(CCC3CCC3)c12`, the Emax is 58.2%.
For `CC(C)(Cc1ccc(Oc2ccc(C(N)=O)cn2)cc1)NC[C@H](O)COc1cccc2[nH]c(=O)n(CCC3CCCC3)c12`, the Emax was 63.7%.
On the same count and under the same terms, for `CCn1c(=O)[nH]c2cccc(OC[C@@H](O)CNC(C)(C)Cc3ccc(Oc4ccc(C(N)=O)cn4)cc3)c21` the value was 65.1%.

A further data set addresses Beta-2 adrenergic receptor (Homo sapiens, UniProt P07550). The data set can be described thus: Agonist activity at human beta-2 adrenergic receptor expressed in CHO cells assessed as cAMP levels. Type of data set: functional, cell-based.
Details: not given
As a reminder, the EC50 is the concentration that produces a half-maximal response. Turning to `Cn1c(=O)[nH]c2cccc(OC[C@@H](O)CNC(C)(C)Cc3ccc(Oc4ccc(C(N)=O)cn4)cc3)c21`, the EC50 was over 10 µM.
On to `CCCn1c(=O)[nH]c2cccc(OC[C@@H](O)CNC(C)(C)Cc3ccc(Oc4ccc(C(N)=O)cn4)cc3)c21`, for which the EC50 is over 10 µM.
Still for that read-out and setting: for `CC(C)(Cc1ccc(Oc2ccc(C(N)=O)cn2)cc1)NC[C@H](O)COc1cccc2[nH]c(=O)n(CCC3CC3)c12` the value was over 10 µM.
On to `CC(C)(Cc1ccc(Oc2ccc(C(N)=O)cn2)cc1)NC[C@H](O)COc1cccc2[nH]c(=O)n(CCC3CCC3)c12`, for which the EC50 was over 10 µM.
On the same count and under the same terms, for `CCn1c(=O)[nH]c2cccc(OC[C@@H](O)CNC(C)(C)Cc3ccc(Oc4ccc(C(N)=O)cn4)cc3)c21` the value was over 10 µM.

For another data set, the system named is Rattus norvegicus. The data set can be described thus: Reduction in respiratory quotient in DIO Long-Evans rat at 10 mg/kg, po after 20 hrs relative to control. Type of data set: functional. Details: scale not given: the % may be the effect or the level left.
Details: not given
Consider `CC(C)(Cc1ccc(Oc2ccc(C(N)=O)cn2)cc1)NC[C@H](O)COc1cccc2[nH]c(=O)n(CCC3CCC3)c12`, for which the Activity is 29%.

For the next data set, the species on record is Rattus norvegicus. Put plainly: Increase in heart rate in rat at 0.01 mM. Type of data set: functional.
Details: not given
`Cn1c(=O)[nH]c2cccc(OC[C@@H](O)CNC(C)(C)Cc3ccc(Oc4ccc(C(N)=O)cn4)cc3)c21` came in with an Activity of 17.7%.
Still for that read-out and setting: with `CCCn1c(=O)[nH]c2cccc(OC[C@@H](O)CNC(C)(C)Cc3ccc(Oc4ccc(C(N)=O)cn4)cc3)c21` the figure was 19.9%; with `CC(C)(Cc1ccc(Oc2ccc(C(N)=O)cn2)cc1)NC[C@H](O)COc1cccc2[nH]c(=O)n(CCC3CC3)c12`, 8.9%.
Same read-out and setting: for `CC(C)(Cc1ccc(Oc2ccc(C(N)=O)cn2)cc1)NC[C@H](O)COc1cccc2[nH]c(=O)n(CCC3CCC3)c12` the value was 6.5%.
The same measure, in the same setting: for `CC(C)(Cc1ccc(Oc2ccc(C(N)=O)cn2)cc1)NC[C@H](O)COc1cccc2[nH]c(=O)n(CCC3CCCC3)c12` the value was 9.9%; for `CCn1c(=O)[nH]c2cccc(OC[C@@H](O)CNC(C)(C)Cc3ccc(Oc4ccc(C(N)=O)cn4)cc3)c21`, 20.8%.

Tested on in another data set: not listed separately
Put plainly: AUC (0-6h) in DIO Long-Evans rat at 10 mg/kg, po. The note with it: plasma. Also on record: time < 6 hr, dose 10 mg/kg, route oral. Type of data set: ADME, organism-based.
For orientation: AUC(0-t) means the area under the concentration-time curve up to a stated or last time point. For `CC(C)(Cc1ccc(Oc2ccc(C(N)=O)cn2)cc1)NC[C@H](O)COc1cccc2[nH]c(=O)n(CCC3CCC3)c12`, the AUC(0-t) at 6 h was determined as 112 ng·h/mL.

The target in another data set is Beta-1 adrenergic receptor (Homo sapiens, UniProt P08588). Put plainly: Agonist activity at human beta-1 adrenergic receptor expressed in CHO cells assessed as cAMP levels. It counts as functional, cell-based.
Beta-1 adrenergic receptor, sequence (P08588 whole entry): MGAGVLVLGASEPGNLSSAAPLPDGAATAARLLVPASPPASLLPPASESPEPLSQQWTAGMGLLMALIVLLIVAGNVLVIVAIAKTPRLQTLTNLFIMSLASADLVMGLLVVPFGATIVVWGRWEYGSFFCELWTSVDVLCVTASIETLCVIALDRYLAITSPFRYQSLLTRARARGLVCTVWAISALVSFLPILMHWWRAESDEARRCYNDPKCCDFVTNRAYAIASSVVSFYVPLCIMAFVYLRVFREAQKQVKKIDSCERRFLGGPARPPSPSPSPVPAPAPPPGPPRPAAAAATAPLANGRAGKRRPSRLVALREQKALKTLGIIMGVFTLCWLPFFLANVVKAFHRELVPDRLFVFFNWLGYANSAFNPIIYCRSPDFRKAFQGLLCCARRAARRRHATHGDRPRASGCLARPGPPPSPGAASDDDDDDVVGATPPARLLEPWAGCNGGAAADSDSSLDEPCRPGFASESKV
Details: not given
Consider `Cn1c(=O)[nH]c2cccc(OC[C@@H](O)CNC(C)(C)Cc3ccc(Oc4ccc(C(N)=O)cn4)cc3)c21`, for which the EC50 is 0.0087 µM (agonist).
Same read-out and setting: with `CCCn1c(=O)[nH]c2cccc(OC[C@@H](O)CNC(C)(C)Cc3ccc(Oc4ccc(C(N)=O)cn4)cc3)c21` the figure was over 10 µM; with `CC(C)(Cc1ccc(Oc2ccc(C(N)=O)cn2)cc1)NC[C@H](O)COc1cccc2[nH]c(=O)n(CCC3CC3)c12`, over 10 µM.
Regarding `CC(C)(Cc1ccc(Oc2ccc(C(N)=O)cn2)cc1)NC[C@H](O)COc1cccc2[nH]c(=O)n(CCC3CCC3)c12`, the EC50 is over 10 µM.
On the same count and under the same terms, with `CC(C)(Cc1ccc(Oc2ccc(C(N)=O)cn2)cc1)NC[C@H](O)COc1cccc2[nH]c(=O)n(CCC3CCCC3)c12` the figure was over 10 µM.
Still for that read-out and setting: with `CCn1c(=O)[nH]c2cccc(OC[C@@H](O)CNC(C)(C)Cc3ccc(Oc4ccc(C(N)=O)cn4)cc3)c21` the figure was over 10 µM.

The target in a further data set is Beta-3 adrenergic receptor (Rattus norvegicus, UniProt P26255). Put plainly: Agonist activity at rat beta-3 adrenergic receptor expressed in CHO cells assessed as cAMP levels. Type of data set: functional, cell-based.
Beta-3 adrenergic receptor (Rattus norvegicus, UniProt P26255), sequence (P26255 whole entry): as the sequence (P26255 whole entry) above
Details: not given
For `Cn1c(=O)[nH]c2cccc(OC[C@@H](O)CNC(C)(C)Cc3ccc(Oc4ccc(C(N)=O)cn4)cc3)c21`, the EC50 is 0.0245 µM (agonist).
Turning to `CC(C)(Cc1ccc(Oc2ccc(C(N)=O)cn2)cc1)NC[C@H](O)COc1cccc2[nH]c(=O)n(CCC3CC3)c12`, the 50% effective concentration (EC50) is 0.0068 µM (agonist).
The same measure, in the same setting: for `CC(C)(Cc1ccc(Oc2ccc(C(N)=O)cn2)cc1)NC[C@H](O)COc1cccc2[nH]c(=O)n(CCC3CCC3)c12` the value was 0.0287 µM (agonist).

The subject of another data set is Rattus norvegicus. The data set can be described thus: Increase in energy expenditure in DIO Long-Evans rat at 10 mg/kg, po after 20 hrs relative to control. It counts as functional.
Details: not given
Consider `CC(C)(Cc1ccc(Oc2ccc(C(N)=O)cn2)cc1)NC[C@H](O)COc1cccc2[nH]c(=O)n(CCC3CCC3)c12`, for which the Activity is recorded as 18%.

For another data set, the target named is T1, Beta-3 adrenergic receptor. The data set can be described thus: Agonist activity at human beta-3 adrenergic receptor expressed in CHO cells assessed as cAMP levels at 100 nM relative to isoproterenol. Type of data set: functional, cell-based.
Details: not given
Target sequence in this assay (P13945 whole entry, looked up): as the sequence (P13945 whole entry, looked up) above
In the case of `CC(Cc1ccc(Oc2ccc(C(=O)O)cc2)cc1)NC[C@H](O)COc1cccc2c1[nH]c(=O)n2C` (stereo not given in full), the Activity was 30%.
The same measure, in the same setting: with `CC(Cc1ccc(Oc2ccc(C(N)=O)cn2)cc1)NC[C@H](O)COc1cccc2c1n(C)c(=O)n2C` (stereo not given in full) the figure was 25%; with `CC(Cc1ccc(Oc2ccc(C#N)cn2)cc1)NC[C@H](O)COc1cccc2c1[nH]c(=O)n2C` (stereo not given in full), 29%; with `CC(Cc1ccc(Oc2ccc(C(=O)O)cc2)cc1)NC[C@H](O)COc1cccc2c1n(C)c(=O)n2C` (stereo not given in full), 28%.
On the same count and under the same terms, with `CC(Cc1ccc(Oc2ccc(C#N)cn2)cc1)NC[C@H](O)COc1cccc2c1n(C)c(=O)n2C` (stereo not given in full) the figure was 11%.
Same read-out and setting: for `CC(Cc1ccc(Oc2ccc(C(N)=O)cn2)cc1)NC[C@H](O)COc1cccc2c1[nH]c(=O)n2C` (stereo not given in full) the value was 33%.

Staying with this data set, now noted: filed as agonist.
For `CC(Cc1ccc(Oc2ccc(C(=O)O)cc2)cc1)NC[C@H](O)COc1cccc2[nH]c(=O)[nH]c12` (stereo not given in full), the Activity was 99%.
On the same count and under the same terms, for `CC(Cc1ccc(Oc2ccc(C#N)cn2)cc1)NC[C@H](O)COc1cccc2[nH]c(=O)[nH]c12` (stereo not given in full) the value was 88%; for `CC(Cc1ccc(Oc2ccc(C#N)cn2)cc1)NC[C@H](O)COc1cccc2[nH]c(=O)n(C)c12` (stereo not given in full), 83%; for `CC(Cc1ccc(Oc2ccc(C(=O)O)cc2)cc1)NC[C@H](O)COc1cccc2[nH]c(=O)n(C)c12` (stereo not given in full), 84%.
Same read-out and setting: for `CC(Cc1ccc(Oc2ccc(C(N)=O)cn2)cc1)NC[C@H](O)COc1cccc2[nH]c(=O)[nH]c12` (stereo not given in full) the value was 97%; for `CC(Cc1ccc(Oc2ccc(C(N)=O)cn2)cc1)NC[C@H](O)COc1cccc2[nH]c(=O)n(C)c12` (stereo not given in full), 87%.

Another data set deals with T1, Beta-3 adrenergic receptor. The data set can be described thus: Agonist activity at human beta3 adrenergic receptor expressed in CHO cells assessed as cAMP levels. Type of data set: functional, cell-based.
Details: not given
Target sequence in this assay (P13945 whole entry): as the sequence (P13945 whole entry, looked up) above
For the compound `Cn1c(=O)[nH]c2cccc(OC[C@@H](O)CNC(C)(C)Cc3ccc(Oc4ccc(C(N)=O)cn4)cc3)c21`, the EC50 was 0.0071 µM (agonist).
In the case of `CCCn1c(=O)[nH]c2cccc(OC[C@@H](O)CNC(C)(C)Cc3ccc(Oc4ccc(C(N)=O)cn4)cc3)c21`, the EC50 is 0.0052 µM (agonist).
Consider `CC(C)(Cc1ccc(Oc2ccc(C(N)=O)cn2)cc1)NC[C@H](O)COc1cccc2[nH]c(=O)n(CCC3CC3)c12`, for which the EC50 is 0.0054 µM (agonist).
Same read-out and setting: with `CC(C)(Cc1ccc(Oc2ccc(C(N)=O)cn2)cc1)NC[C@H](O)COc1cccc2[nH]c(=O)n(CCC3CCC3)c12` the figure was 0.0101 µM (agonist).
Consider `CC(C)(Cc1ccc(Oc2ccc(C(N)=O)cn2)cc1)NC[C@H](O)COc1cccc2[nH]c(=O)n(CCC3CCCC3)c12`, for which the EC50 is 0.0117 µM (agonist).
Same read-out and setting: with `CCn1c(=O)[nH]c2cccc(OC[C@@H](O)CNC(C)(C)Cc3ccc(Oc4ccc(C(N)=O)cn4)cc3)c21` the figure was 0.0052 µM (agonist).

The next data set concerns the target Beta-3 adrenergic receptor (Rattus norvegicus) (UniProt P26255). Put plainly: Agonist activity at rat beta-3 adrenergic receptor expressed in CHO cells assessed as cAMP levels relative to isoproterenol. Type of data set: functional, cell-based. The note with it: filed as agonist.
As for `Cn1c(=O)[nH]c2cccc(OC[C@@H](O)CNC(C)(C)Cc3ccc(Oc4ccc(C(N)=O)cn4)cc3)c21`, the Emax is 59.6%.
Same read-out and setting: for `CC(C)(Cc1ccc(Oc2ccc(C(N)=O)cn2)cc1)NC[C@H](O)COc1cccc2[nH]c(=O)n(CCC3CC3)c12` the value was 42.7%; for `CC(C)(Cc1ccc(Oc2ccc(C(N)=O)cn2)cc1)NC[C@H](O)COc1cccc2[nH]c(=O)n(CCC3CCC3)c12`, 49.6%.

(Values after ChEMBL document CHEMBL1139684, “Potent benzimidazolone based human beta(3)-adrenergic receptor agonists” (Bioorg Med Chem Lett, 2006).)
